Values of other authors, collected in US20200179352A1, “USE OF VALBENAZINE FOR TREATING LEVODOPA-INDUCED DYSKINESIA” (Neurocrine Biosciences, Inc., priority 2017, published 2020).

Settings: series of 448 patients with various hyperkinetic movement disorders treated with tetrabenazine from 1997-2004

COc1cc2c(cc1OC)C1CC(=O)C(CC(C)C)CN1CC2 (stereo not shown) [tetrabenazine, 3-isobutyl-9,10-dimethoxy-1,3,4,6,7,11b-hexahydro-2H-pyrido[2,1-a]isoquinolin-2-one]
adverse event rate for parkinsonism: 15.4%
